# From patent US20020137929A1, “1 - (3-heterocyclylphenyl) isothiourea, -isourea, -guanidine and -amidine herbicidal agents” (Intellectual Property Department, BASF Aktiengesellschaft, priority 1998, published 2002)
# Columns and labels:
# ZEAMX (Corn, Field) = experiment: Postemergence herbicidal evaluation; format: in vivo, Zea mays; details: postemergence
# Method in brief: (§1)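 Seedlings grown about two weeks were sprayed at 40 psi with compound dispersed in 50/50 acetone/water plus 0.5% TWEEN 20, at about 0.0156 to 0.500 kg/ha. Plants were kept in the greenhouse and scored 4–5 weeks later on a 0–9 visual scale against untreated controls.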
# [1] = tested on: SAGPY (Arrowhead (Pygmaea)); experiment: Postemergence weed control under flooded paddy conditions; format: in vivo, Sagittaria pygmaea; details: postemergence weeds, 3-4 weeks after treatment
# Method in brief: (§2)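 Weeds 3 to 5 cm tall and rice seedlings at the 1.5 to 2.5 leaf stage were flooded, with water held 1.5 to 3 cm above the soil. Compounds in 50/50 v/v aqueous/acetone went into the flood water at about 0.0313 to 0.500 kg/ha. Visual 0-9 ratings versus control were made 3 to 4 weeks later.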
# GALAP (Galium) = experiment: Postemergence herbicidal evaluation; format: in vivo, Galium aparine; details: postemergence
# Method in brief: as §1
# AMBEL (Ragweed, Common) = experiment: Preemergence herbicidal evaluation; format: in vivo, Ambrosia artemisifolia; details: rated 4-5 weeks after treatment
# Method in brief: (§3)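 In this greenhouse assay, monocot and dicot seeds are planted in soil and treated prior to emergence with an aqueous acetone spray (about 0.0156-0.500 kg/ha). Plants are assessed visually against control on a 0-9 scale after 4-5 weeks.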
# ORYSAT (Rice, Tebonnet) [2] = experiment: Postemergence herbicidal evaluation; format: in vivo, Oryza sativa, (L.) Tebonnet; details: postemergence
# Method in brief: as §1
# [3] = tested on: GLXMAW (Soybean, Williams); experiment: Preemergence herbicidal evaluation; format: in vivo, Glycine max, (L.) Merr. cv Williams; details: rated 4-5 weeks after treatment
# Method in brief: as §3
# ORYSAT (Rice, Tebonnet) [4] = experiment: Preemergence herbicidal evaluation; format: in vivo, Oryza sativa, (L.) Tebonnet; details: rated 4-5 weeks after treatment
# Method in brief: as §3
# SETVI (Foxtail, Green) = experiment: Preemergence herbicidal evaluation; format: in vivo, Setaria viridis; details: rated 4-5 weeks after treatment
# Method in brief: as §3
# MOOVA (Monochoria) = experiment: Preemergence weed control under flooded paddy conditions; format: in vivo, Monochoria vaginalis; details: rated 3-4 weeks after treatment
# Method in brief: (§4)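 Values are visual 0-9 scores against a control for a preemergence application into paddy flood water at about 0.0313 to 0.500 kg/ha. Greenhouse duration was three to four weeks.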
# [5] = tested on: CHEAL (Lambsquarters, Common); experiment: Postemergence herbicidal evaluation; format: in vivo, Chenopodium album; details: postemergence
# Method in brief: as §1
# CYPIR (Rice Flatsedge) = experiment: Postemergence weed control under flooded paddy conditions; format: in vivo, Cyperus iria; details: postemergence weeds, 3-4 weeks after treatment
# Method in brief: as §2
# CYPSE (Flatsedge) [6] = experiment: Preemergence weed control under flooded paddy conditions; format: in vivo, Cyperus serotinus; details: rated 3-4 weeks after treatment
# Method in brief: as §4
# CASOB (Sicklepod) = experiment: Postemergence herbicidal evaluation; format: in vivo, Cassia obtusifolia; details: postemergence
# Method in brief: as §1
# CYPSE (Flatsedge) [7] = experiment: Postemergence weed control under flooded paddy conditions; format: in vivo, Cyperus serotinus; details: postemergence weeds, 3-4 weeks after treatment
# Method in brief: as §2
smiles,measurement,setting,value
"C=CCN1C(=O)CSC1=Nc1cc(N2C(=O)C3=C(CCCC3)C2=O)c(F)cc1Cl [Compound 2, N-{5-[(3-allyl-4-oxo-2-thiazolidinylidene)amino]-4-chloro-2-fluorophenyl}-1-cyclohexene-1,2-dicarboximide]",ZEAMX herbicidal rating,"ZEAMX (Corn, Field); rate 0.0157 kg/ha",3.0
same,ZEAMX herbicidal rating,"ZEAMX (Corn, Field); rate 0.0313 kg/ha",3.0
same,ZEAMX herbicidal rating,"ZEAMX (Corn, Field); rate 0.0625 kg/ha",3.0
same,ZEAMX herbicidal rating,"ZEAMX (Corn, Field); rate 0.1250 kg/ha",3.5
same,ZEAMX herbicidal rating,"ZEAMX (Corn, Field); rate 0.2500 kg/ha",3.5
same,ZEAMX herbicidal rating,"ZEAMX (Corn, Field); rate 0.5000 kg/ha",4.0
same,Herbicidal rating SAGPY,[1]; rate 0.0313 kg/ha,0.0
same,Herbicidal rating SAGPY,[1]; rate 0.0625 kg/ha,0.0
same,Herbicidal rating SAGPY,[1]; rate 0.1250 kg/ha,0.0
same,Herbicidal rating SAGPY,[1]; rate 0.2500 kg/ha,0.0
same,Herbicidal rating SAGPY,[1]; rate 0.5000 kg/ha,1.0
same,GALAP herbicidal rating,GALAP (Galium); rate 0.0157 kg/ha,4.0
same,GALAP herbicidal rating,GALAP (Galium); rate 0.0313 kg/ha,8.0
same,GALAP herbicidal rating,GALAP (Galium); rate 0.0625 kg/ha,4.0
same,GALAP herbicidal rating,GALAP (Galium); rate 0.1250 kg/ha,4.0
same,GALAP herbicidal rating,GALAP (Galium); rate 0.2500 kg/ha,4.0
same,GALAP herbicidal rating,GALAP (Galium); rate 0.5000 kg/ha,4.0
same,AMBEL preemergence herbicidal rating,"AMBEL (Ragweed, Common); rate 0.0313 kg/ha",0.0
same,AMBEL preemergence herbicidal rating,"AMBEL (Ragweed, Common); rate 0.0625 kg/ha",0.0
same,AMBEL preemergence herbicidal rating,"AMBEL (Ragweed, Common); rate 0.1250 kg/ha",0.0
same,AMBEL preemergence herbicidal rating,"AMBEL (Ragweed, Common); rate 0.2500 kg/ha",0.0
same,AMBEL preemergence herbicidal rating,"AMBEL (Ragweed, Common); rate 0.5000 kg/ha",0.0
same,ORYSAT herbicidal rating,"ORYSAT (Rice, Tebonnet) [2]; rate 0.0157 kg/ha",3.0
same,ORYSAT herbicidal rating,"ORYSAT (Rice, Tebonnet) [2]; rate 0.0313 kg/ha",3.0
same,ORYSAT herbicidal rating,"ORYSAT (Rice, Tebonnet) [2]; rate 0.0625 kg/ha",3.0
same,ORYSAT herbicidal rating,"ORYSAT (Rice, Tebonnet) [2]; rate 0.1250 kg/ha",3.5
same,ORYSAT herbicidal rating,"ORYSAT (Rice, Tebonnet) [2]; rate 0.2500 kg/ha",3.5
same,ORYSAT herbicidal rating,"ORYSAT (Rice, Tebonnet) [2]; rate 0.5000 kg/ha",3.0
same,GLXMAW preemergence herbicidal rating,[3]; rate 0.0313 kg/ha,0.0
same,GLXMAW preemergence herbicidal rating,[3]; rate 0.0625 kg/ha,0.0
same,GLXMAW preemergence herbicidal rating,[3]; rate 0.1250 kg/ha,0.0
same,GLXMAW preemergence herbicidal rating,[3]; rate 0.2500 kg/ha,0.0
same,GLXMAW preemergence herbicidal rating,[3]; rate 0.5000 kg/ha,1.0
same,ORYSAT preemergence herbicidal rating,"ORYSAT (Rice, Tebonnet) [4]; rate 0.0313 kg/ha",2.0
same,ORYSAT preemergence herbicidal rating,"ORYSAT (Rice, Tebonnet) [4]; rate 0.0625 kg/ha",2.0
same,ORYSAT preemergence herbicidal rating,"ORYSAT (Rice, Tebonnet) [4]; rate 0.1250 kg/ha",2.0
same,ORYSAT preemergence herbicidal rating,"ORYSAT (Rice, Tebonnet) [4]; rate 0.2500 kg/ha",2.0
same,ORYSAT preemergence herbicidal rating,"ORYSAT (Rice, Tebonnet) [4]; rate 0.5000 kg/ha",3.0
same,SETVI preemergence herbicidal rating,"SETVI (Foxtail, Green); rate 0.0313 kg/ha",0.0
same,SETVI preemergence herbicidal rating,"SETVI (Foxtail, Green); rate 0.0625 kg/ha",0.0
same,SETVI preemergence herbicidal rating,"SETVI (Foxtail, Green); rate 0.1250 kg/ha",6.0
same,SETVI preemergence herbicidal rating,"SETVI (Foxtail, Green); rate 0.2500 kg/ha",6.0
same,SETVI preemergence herbicidal rating,"SETVI (Foxtail, Green); rate 0.5000 kg/ha",9.0
same,Herbicidal rating MOOVA,MOOVA (Monochoria); 0.0313 kg/ha,4.0
same,Herbicidal rating MOOVA,MOOVA (Monochoria); 0.0625 kg/ha,9.0
same,Herbicidal rating MOOVA,MOOVA (Monochoria); 0.1250 kg/ha,9.0
same,Herbicidal rating MOOVA,MOOVA (Monochoria); 0.2500 kg/ha,9.0
same,Herbicidal rating MOOVA,MOOVA (Monochoria); 0.5000 kg/ha,9.0
same,CHEAL herbicidal rating,[5]; rate 0.0157 kg/ha,7.0
same,CHEAL herbicidal rating,[5]; rate 0.0313 kg/ha,6.0
same,CHEAL herbicidal rating,[5]; rate 0.0625 kg/ha,8.0
same,CHEAL herbicidal rating,[5]; rate 0.1250 kg/ha,9.0
same,CHEAL herbicidal rating,[5]; rate 0.2500 kg/ha,7.0
same,CHEAL herbicidal rating,[5]; rate 0.5000 kg/ha,9.0
same,Herbicidal rating CYPIR,CYPIR (Rice Flatsedge); rate 0.0313 kg/ha,0.0
same,Herbicidal rating CYPIR,CYPIR (Rice Flatsedge); rate 0.0625 kg/ha,0.0
same,Herbicidal rating CYPIR,CYPIR (Rice Flatsedge); rate 0.1250 kg/ha,0.0
same,Herbicidal rating CYPIR,CYPIR (Rice Flatsedge); rate 0.2500 kg/ha,1.0
same,Herbicidal rating CYPIR,CYPIR (Rice Flatsedge); rate 0.5000 kg/ha,4.0
same,Herbicidal rating CYPSE,CYPSE (Flatsedge) [6]; 0.0313 kg/ha,0.0
same,Herbicidal rating CYPSE,CYPSE (Flatsedge) [6]; 0.0625 kg/ha,0.0
same,Herbicidal rating CYPSE,CYPSE (Flatsedge) [6]; 0.1250 kg/ha,0.0
same,Herbicidal rating CYPSE,CYPSE (Flatsedge) [6]; 0.2500 kg/ha,0.0
same,Herbicidal rating CYPSE,CYPSE (Flatsedge) [6]; 0.5000 kg/ha,0.0
same,CASOB herbicidal rating,CASOB (Sicklepod); rate 0.0157 kg/ha,4.0
same,CASOB herbicidal rating,CASOB (Sicklepod); rate 0.0313 kg/ha,4.0
same,CASOB herbicidal rating,CASOB (Sicklepod); rate 0.0625 kg/ha,2.0
same,CASOB herbicidal rating,CASOB (Sicklepod); rate 0.1250 kg/ha,2.0
same,CASOB herbicidal rating,CASOB (Sicklepod); rate 0.2500 kg/ha,4.0
same,CASOB herbicidal rating,CASOB (Sicklepod); rate 0.5000 kg/ha,7.0
same,Herbicidal rating CYPSE,CYPSE (Flatsedge) [7]; rate 0.0313 kg/ha,0.0
same,Herbicidal rating CYPSE,CYPSE (Flatsedge) [7]; rate 0.0625 kg/ha,0.0
same,Herbicidal rating CYPSE,CYPSE (Flatsedge) [7]; rate 0.1250 kg/ha,0.0
same,Herbicidal rating CYPSE,CYPSE (Flatsedge) [7]; rate 0.2500 kg/ha,0.0
same,Herbicidal rating CYPSE,CYPSE (Flatsedge) [7]; rate 0.5000 kg/ha,0.0
